Assay results reported in PMC10648349, “Aromatic Diboronic Acids as Effective KPC/AmpC Inhibitors” (Molecules, 2023).
In brackets after ≈: the same amount, converted by molar mass.

Key:
[1] = tested on: E. faecium ATCC 6057; assay: direct antimicrobial activity (disc-diffusion, MIC, MBC); type: cell-based; settings: Enterococcus faecium, ATCC6057; for zone of inhibition at 0.4 mg/disc: 0.4 mg per disc, 9 mm disc (linezolid 0.03 mg, 6 mm disc), - no zone, read-out: Diameter of inhibition zone
Procedure, shortened: (§1)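 Disc-diffusion (0.4 mg compound per disc, DMSO solutions), MIC, and MBC for bacteria or MFC for yeasts, run per EUCAST and CLSI recommendations. References: nitrofurantoin for Gram-negative rods, linezolid for Gram-positive bacteria, fluconazole for fungi.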

[2] = tested on: S. epidermidis ATCC 12228; assay: as above; type: cell-based; settings: Staphylococcus epidermidis, ATCC12228; for zone of inhibition at 0.4 mg/disc: 0.4 mg per disc, 9 mm disc (linezolid 0.03 mg, 6 mm disc), - no zone, read-out: Diameter of inhibition zone
Procedure, shortened: as §1

[3] = tested on: S. aureus ATCC 6538P; assay: as above; type: cell-based; settings: Staphylococcus aureus, ATCC6538P; for zone of inhibition at 0.4 mg/disc: 0.4 mg per disc, 9 mm disc (linezolid 0.03 mg, 6 mm disc), - no zone, read-out: Diameter of inhibition zone
Procedure, shortened: as §1

[4] = tested on: S. aureus ATCC 43300 MRSA; assay: as above; type: cell-based; settings: Staphylococcus aureus; for zone of inhibition at 0.4 mg/disc: 0.4 mg per disc, 9 mm disc (linezolid 0.03 mg, 6 mm disc), - no zone, read-out: Diameter of inhibition zone
Procedure, shortened: as §1

[5] = tested on: E. faecalis ATCC 29212; assay: as above; type: cell-based; settings: Enterococcus faecalis, ATCC29212
Procedure, shortened: as §1

[6] = tested on: K. pneumoniae ATCC 700603 ESBL-positive; assay: combination disc test CDT-ESBL; type: cell-based; settings: Klebsiella pneumoniae, ATCC700603, read-out: Diameter of inhibition zone, CAZ-30 disc with agent; for zone of inhibition at 100 µg/disc: agent 0.1 mg per disc
[7] = tested on: E. coli 77 CMY-2-positive; assay: checkerboard microdilution, antibiotic plus tested agent; type: cell-based, Escherichia coli
Procedure, shortened: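 Read-out is the antibiotic MIC with agent present, plus FICI = combined/alone MIC ratios summed for both partners. Meropenem pairs served for carbapenemase strains and ceftazidime pairs for the AmpC strain. Agent or PBA was tested at 4–16 mg/L.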

[8] = tested on: K. pneumoniae ATCC BAA 1705 KPC(+); assay: screening test of direct antimicrobial activity (STDA), disc-diffusion; type: cell-based; settings: Klebsiella pneumoniae, BAA1705; 0.3 mg per disc; - no zone; read-out: Diameter of inhibition zone around disc with tested agent
Procedure: (§2) Prior to combination disc tests, screening tests of direct antimicrobial activity (STDA) of the tested agent against β-lactamase-producing strains were performed by the disc-diffusion method. Discs with 0.3 mg, 0.1 mg, and 0.03 mg of each agent were examined. The highest amount of an agent that caused no effect on bacterial growth was used in further experiments.

[9] = tested on: E. coli 77 CMY-2(+); assay: as above; type: cell-based; settings: Escherichia coli, - no zone, read-out: Diameter of inhibition zone around disc with tested agent; for zone of inhibition at 300 µg/disc: 0.3 mg per disc
Procedure: as §2

[10] = tested on: K. pneumoniae ATCC 700603 ESBL(+); assay: as above; type: cell-based; settings: Klebsiella pneumoniae, ATCC700603; 0.3 mg per disc; - no zone; read-out: Diameter of inhibition zone around disc with tested agent
Procedure: as §2

[11] = tested on: P. aeruginosa MUW 700 AmpC(+); assay: as above; type: cell-based; settings: Pseudomonas aeruginosa; 0.3 mg per disc; - no zone; read-out: Diameter of inhibition zone around disc with tested agent
Procedure: as §2

[12] = tested on: B. subtilis ATCC 6633; assay: direct antimicrobial activity (disc-diffusion); type: cell-based; settings: Bacillus subtilis, ATCC6633; 0.4 mg per disc, 9 mm disc (linezolid 0.03 mg, 6 mm disc); - no zone; read-out: Diameter of inhibition zone
Procedure, shortened: as §1

[13] = tested on: KPC producers; assay: microdilution with carbapenems; type: cell-based
Procedure: To examine the ability of tested agents to inhibit various carbapenemases and AmpC-enzymes, their synergy with antibiotics against β-lactamase-producing strains was assessed by checkerboard microdilution assay, with slight modification. Checkerboards were prepared in microtiter plates, with seven two-fold dilutions of β-lactams (1–64 mg/L) in the rows and three two-fold dilutions of tested agents and PBA (4–16 mg/L) in the columns. Tested agents’ concentrations were limited to the concentrations at which the newest commercially available BLIs (vaborbactam, relebactam, and avibactam) are used in susceptibility testing. Plates were inoculated and incubated as in the MIC microdilution assay. Parallel, MICs of tested agents and PBA alone were determined by the microdilution assay. Following the incubation, antibiotic MICs in the presence of each agent’s concentration were determined. Moreover, for the first well without growth found in each checkerboard row and column along the growth/non-growth interface, the fractional inhibitory concentration index (FICI) was calculated using the formula below:FICI = [(MIC of antibiotic in combination)/(MIC of antibiotic alone)] + [(MIC of the tested agent in combination)/(MIC of tested agent alone)].
For calculations, all off-scale MICs were converted to the next-highest doubling concentration. Subsequently, both the average and the lowest FICI were interpreted. The interpretation was as follows: FICI ≤ 0.5, synergy; 0.5 < FICI ≤ 4, indifference and FICI > 4, antagonism. Primarily, examined combinations consisted of meropenem (Pol-Aura, Morag, Poland) plus tested agents against carbapenemases-producing strains and ceftazidime (Pol-Aura, Morag, Poland) plus tested agents against AmpC-producing strains. For agents that reduced meropenem MIC at least 4-fold for at least two tested strains, similar assays were performed with imipenem (Pol-Aura, Morag, Poland) and ertapenem (Pol-Aura, Morag, Poland).

[14] = tested on: E. coli 76 KPC-2-positive; assay: checkerboard microdilution, antibiotic plus tested agent; type: cell-based, Escherichia coli
Procedure, shortened: (§3)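 Chequerboard layout: tested agent in three two-fold steps (4–16 mg/L) crossed with seven β-lactam dilutions (1–64 mg/L), meropenem for KPC strains and ceftazidime for the cAmpC strain. FICI from first non-growth wells, off-scale MICs raised one doubling; ≤0.5 counts as synergy, >4 antagonism.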

[15] = tested on: K. pneumoniae 81 KPC-3-positive; assay: as above; type: cell-based, Klebsiella pneumoniae
Procedure, shortened: as §3

[16] = tested on: K. pneumoniae ATCC BAA-1705 KPC-2-positive; assay: as above; type: cell-based, Klebsiella pneumoniae
Procedure, shortened: as §3

[17] = tested on: K. pneumoniae 83 KPC-3-positive, CTX-M-3-positive; assay: as above; type: cell-based, Klebsiella pneumoniae
Procedure, shortened: as §3

OB(O)c1cc(B(O)O)c(F)cc1F [2c]
MIC [1]: 400 µg/mL (≈ 1980 µM)
MIC [2]: 50 µg/mL (≈ 248 µM)
MIC [3]: 50 µg/mL (≈ 248 µM)
zone of inhibition at 0.4 mg/disc [3]: 20 mm
MIC [4]: 100 µg/mL (≈ 496 µM)
zone of inhibition at 0.4 mg/disc [4]: 19 mm
MIC [5]: 400 µg/mL (≈ 1980 µM)
zone of inhibition at 100 µg/disc [6]: 13 mm
Average FICI with ceftazidime [7]: 0.21
The lowest FICI with ceftazidime [7]: 0.17
zone of inhibition at 300 µg/disc [8]: 14 mm
zone of inhibition at 300 µg/disc [9]: 15 mm
zone of inhibition at 300 µg/disc [10]: 13 mm
zone of inhibition at 300 µg/disc [11]: 11 mm

O=Cc1cc(F)ccc1B(O)O [7b]
zone of inhibition at 0.4 mg/disc [12]: 22 mm
MIC [1]: 200 µg/mL (≈ 1190 µM)
zone of inhibition at 0.4 mg/disc [1]: 14 mm
MBC [2]: 100 µg/mL (≈ 595 µM)
MIC [2]: 50 µg/mL (≈ 298 µM)
zone of inhibition at 0.4 mg/disc [2]: 30 mm
MBC [3]: 100 µg/mL (≈ 595 µM)
MIC [3]: 50 µg/mL (≈ 298 µM)
zone of inhibition at 0.4 mg/disc [3]: 19 mm
MIC [4]: 50 µg/mL (≈ 298 µM)
zone of inhibition at 0.4 mg/disc [4]: 20 mm
MIC [5]: 200 µg/mL (≈ 1190 µM)
zone of inhibition at 0.4 mg/disc ([5]; 0.4 mg per disc, 9 mm disc (linezolid 0.03 mg, 6 mm disc), - no zone, read-out: Diameter of inhibition zone): 14 mm
zone of inhibition at 300 µg/disc [8]: 14 mm
zone of inhibition at 100 µg/disc ([9]; 0.1 mg per disc): 12 mm
zone of inhibition at 300 µg/disc [9]: 14 mm
zone of inhibition at 300 µg/disc [10]: 13 mm

OB(O)c1ccccc1B(O)O [3a, phenylene-1,2-diboronic acid]
zone of inhibition at 0.4 mg/disc [12]: 24 mm
MIC [1]: 50 µg/mL (≈ 302 µM)
zone of inhibition at 0.4 mg/disc [1]: 16 mm
MIC [2]: 200 µg/mL (≈ 1210 µM)
zone of inhibition at 0.4 mg/disc [2]: 20 mm
MIC [3]: 200 µg/mL (≈ 1210 µM)
MIC [4]: 400 µg/mL (≈ 2410 µM)
MIC [5]: 400 µg/mL (≈ 2410 µM)
carbapenems' MIC reduction, up to ([13]; agent 4 mg/L): ≤ 8 fold
carbapenems' MIC reduction, up to ([13]; agent 8 mg/L): up to 16 fold
carbapenems' MIC reduction, up to ([13]; agent 16 mg/L): up to 64 fold
fractional inhibitory concentrations indices with carbapenems ([13]; checkerboard assays): 0.1–0.32
zone of inhibition at 300 µg/disc ([6]; agent 0.3 mg per disc): 18 mm
Average FICI with ceftazidime [7]: 0.44
The lowest FICI with ceftazidime [7]: 0.29
Average FICI with ERT [14]: 0.23
Average FICI with IMI [14]: 0.13
Average FICI with MEM [14]: 0.17
The lowest FICI with ERT [14]: 0.17
The lowest FICI with IMI [14]: 0.10
The lowest FICI with MEM [14]: 0.10
Average FICI with ERT [15]: 0.14
Average FICI with IMI [15]: 0.13
Average FICI with MEM [15]: 0.10
The lowest FICI with ERT [15]: 0.07
The lowest FICI with IMI [15]: 0.10
The lowest FICI with MEM [15]: 0.07
Average FICI with ERT [16]: 0.32
Average FICI with IMI [16]: 0.19
Average FICI with MEM [16]: 0.32
The lowest FICI with ERT [16]: 0.17
The lowest FICI with IMI [16]: 0.15
The lowest FICI with MEM [16]: 0.17
Average FICI with ERT [17]: 0.17
Average FICI with IMI [17]: 0.17
Average FICI with MEM [17]: 0.13
The lowest FICI with ERT [17]: 0.10
The lowest FICI with IMI [17]: 0.10
The lowest FICI with MEM [17]: 0.06

OB(O)c1cc(F)c(B(O)O)c(F)c1F [1f]
zone of inhibition at 0.4 mg/disc [12]: 13 mm
MIC [1]: 200 µg/mL (≈ 910 µM)
MIC [2]: 50 µg/mL (≈ 228 µM)
zone of inhibition at 0.4 mg/disc [2]: 17 mm
MIC [3]: 50 µg/mL (≈ 228 µM)
zone of inhibition at 0.4 mg/disc [3]: 17 mm
MIC [4]: 200 µg/mL (≈ 910 µM)
zone of inhibition at 0.4 mg/disc [4]: 16 mm
MIC [5]: 400 µg/mL (≈ 1820 µM)
zone of inhibition at 100 µg/disc [6]: 15 mm
Average FICI with ceftazidime [7]: 0.24
The lowest FICI with ceftazidime [7]: 0.21
zone of inhibition at 300 µg/disc [8]: 16 mm
zone of inhibition at 300 µg/disc [9]: 15 mm
zone of inhibition at 300 µg/disc [10]: 18 mm
zone of inhibition at 300 µg/disc [11]: 12 mm
